Test results published in patent US8455480B2, “Active agent combinations having insecticidal and acaricidal properties” (Bayer Cropscience AG, priority 2007, dated 2013).

Legend:
Myzus persicae = Myzus persicae test (spray on infested cabbage leaves); format: in vivo; settings: single active substance
[1] = tested on: Phaedon cochleariae larvae; test: Phaedon cochleariae larvae test (sprayed cabbage leaves); settings: for Destruction in % after 2 d: single active substance
[2] = Phaedon cochleariae, in Brassica oleracea, 144 h, read-out: Destruction in % after 6 d

O=C1C=C(N(Cc2ccc(Cl)nc2)CC(F)F)CO1 [Compound (I-5), 4-{[(6-chloropyrid-3-yl)methyl](2,2-difluoroethyl)amino}furan-2(5H)-one]
Destruction in % after 6 d (Myzus persicae; 0.8 g/ha): 30% | pest or weed control at 20 g/ha [1, 2]: 0% | pest or weed control at 100 g/ha [1, 2]: 50% | Destruction in % after 2 d ([1]; 100 g/ha): 33%

O=[N+]([O-])/N=C1\NCCN1Cc1ccc(Cl)nc1 [Imidacloprid]
Destruction in % after 1 d (Myzus persicae; 0.16 g/ha): 20% | pest or weed control at 4 g/ha [1, 2]: 0%

CN1COCN(Cc2cnc(Cl)s2)/C1=N/[N+](=O)[O-] [Thiamethoxam]
Destruction in % after 6 d (Myzus persicae; 0.032 g/ha): 0% | Destruction in % after 6 d (Myzus persicae; 0.16 g/ha): 30% | pest or weed control at 4 g/ha [1, 2]: 17%

CN/C(=N\[N+](=O)[O-])NCc1cnc(Cl)s1 [Clothianidin]
Destruction in % after 1 d (Myzus persicae; 0.16 g/ha): 0% | Destruction in % after 6 d (Myzus persicae; 0.16 g/ha): 10% | pest or weed control at 4 g/ha [1, 2]: 33%

CN/C(=N\[N+](=O)[O-])NCC1CCOC1 (stereo not drawn) [Dinotefuran]
pest or weed control at 4 g/ha [1, 2]: 0%

C/C(=N\C#N)N(C)Cc1ccc(Cl)nc1 [Acetamiprid]
Destruction in % after 6 d (Myzus persicae; 0.032 g/ha): 0% | Destruction in % after 2 d ([1]; 4 g/ha): 0%

N#C/N=C1\SCCN1Cc1ccc(Cl)nc1 [Thiacloprid]
Destruction in % after 1 d (Myzus persicae; 0.16 g/ha): 20% | Destruction in % after 6 d (Myzus persicae; 0.16 g/ha): 0% | pest or weed control at 4 g/ha [1, 2]: 17% | Destruction in % after 2 d ([1]; 4 g/ha): 0%

CN(Cc1cnc(Cl)c(F)c1)C1=CC(=O)OC1 [Compound (I-6), 4-{[(6-chloro-5-fluoropyrid-3-yl)methyl](methyl)amino}furan-2(5H)-one]
pest or weed control at 100 g/ha [1, 2]: 0% | Destruction in % after 2 d ([1]; 100 g/ha): 0%

O=C1C=C(N(CCF)Cc2ccc(Cl)nc2)CO1 [Compound (I-4), 4-{[(6-chloropyrid-3-yl)methyl](2-fluoroethyl)amino}furan-2(5H)-one]
Destruction in % after 1 d (Myzus persicae; 4 g/ha): 50% | Destruction in % after 6 d (Myzus persicae; 4 g/ha): 70% | pest or weed control at 100 g/ha [1, 2]: 0%
